Literature values, collected in US12594250B2, “Prevention of accumulated tolerance to stimulant medication for the treatment of ADHD” (priority 2021, dated 2026).
Where two headings read alike, the source gives them in different places.

Experiments:
[1] = system: ADHD; conditions: high dose of IR formulation
[2] = system: children with ADHD; conditions: for duration of effect / action / efficacy: after one administration
[3] = system: children with ADHD
[4] = biological target: T1, DA Transporter (DAT) (Homo sapiens, UniProt Q01959); conditions: adults with ADHD, a year of consistent medication use
T1 construct: dopamine transporter density was increased in specific dopamine regions of the brain; host or cells: living brain (caudate nucleus, nucleus accumbens) of adults with ADHD; endogenous protein
T1 sequence (Q01959 whole entry): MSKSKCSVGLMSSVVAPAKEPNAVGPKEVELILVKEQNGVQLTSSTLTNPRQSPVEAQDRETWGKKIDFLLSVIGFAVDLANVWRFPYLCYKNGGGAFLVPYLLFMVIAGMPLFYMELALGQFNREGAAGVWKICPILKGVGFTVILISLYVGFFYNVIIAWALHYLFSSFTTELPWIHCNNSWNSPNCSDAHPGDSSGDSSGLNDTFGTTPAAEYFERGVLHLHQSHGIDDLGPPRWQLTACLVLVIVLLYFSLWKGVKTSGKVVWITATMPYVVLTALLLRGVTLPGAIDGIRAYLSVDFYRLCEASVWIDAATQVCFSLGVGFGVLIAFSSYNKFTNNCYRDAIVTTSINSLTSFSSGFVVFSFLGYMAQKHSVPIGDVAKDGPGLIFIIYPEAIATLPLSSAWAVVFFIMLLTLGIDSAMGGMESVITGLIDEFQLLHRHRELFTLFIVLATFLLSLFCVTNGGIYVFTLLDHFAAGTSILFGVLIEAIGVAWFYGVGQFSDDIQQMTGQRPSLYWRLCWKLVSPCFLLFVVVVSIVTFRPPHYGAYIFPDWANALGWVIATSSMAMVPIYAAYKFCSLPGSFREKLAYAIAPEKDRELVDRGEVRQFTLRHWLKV

[5] = oral administration; for time to maximum serum concentration (C-max): immediate-release bolus

NC(=O)C[S+]([O-])C(c1ccccc1)c1ccccc1 (centres unmarked) [modafinil]
serious side effects [1]: a few cases were suspected of serious dermatologic side effects

NC1=NC(=O)C(c2ccccc2)O1 (centres unmarked) [Cylert, pemoline]
duration of effect / action / efficacy [2]: 6 h

COC(=O)C(c1ccccc1)C1CCCCN1 (centres unmarked) [methylphenidate]
duration of effect / action / efficacy ([2]; listed as Ritalin): 3 h | onset of clinical effect (reduction in symptoms) ([2]; after oral administration): within an hour | effect (PD response) across the day ([3]; ascending PK profile): increasing effect | effect (PD response) across the day ([3]; flat PK profile): decreasing effect | DAT density [4]: increases DAT density | time to maximum serum concentration (C-max) [5]: about 1 hours | half-life (T-½) ([5]; serum concentration): 2 to 3 h

CC(N)Cc1ccccc1 (centres unmarked) [amphetamine]
duration of constant effect ([2]; twice-a-day (BID) dosing of immediate-release): 10 to 12 h | time to maximum serum concentration (C-max) [5]: about 2 hours
